Data on two compounds can be found in PMC10624628 (2023).

Molecules are shown by their SMILES.

Test [1] has as its system SAMURI / 17-mer substrate RNA (RNA, ribozyme) GGUUGAAGGCAUGGCUCAGGGACUUCGGUCCGCUGCAGUCAGUAUGUCC/ACAUACUGAGCCUUCAA
As to the kind of experiment: Michaelis-Menten fit of kobs, alkylation of Cy5-labelled substrate, denaturing PAGE. The note with it: 120 mM KCl, 5 mM NaCl, 10 mM MgCl2; 50 mM HEPES, pH 7.5, 37 °C; apparent; 32.6 ± 2.2 µM at 0.5 mM Mg2+; covalent transfer to substrate.

Test [2] has the same test system. In words: inhibition of SAMURI trans-propargylation, PAGE. The note with it: 120 mM KCl, 5 mM NaCl, 10 mM MgCl2; pH 7.5, 37 °C, 1 h; no competition with 10 µM ProSeDMA up to 1 mM SAM; methylates substrate at 3 mM.

As for `C#CC[Se+](CCC(N)C(N)=O)C[C@H]1O[C@@H](n2cnc3c(N)nc(N)nc32)[C@H](O)[C@@H]1O` (some centres unmarked), in test [1], the “Km,app” value was 8.9 ± 1.9 µM.
With `C[S+](CC[C@H](N)C(=O)O)C[C@H]1O[C@@H](n2cnc3c(N)ncnc32)[C@H](O)[C@@H]1O` (some centres unmarked), the binding result in test [2] was “weak”.
